Source: patent publication US20050131739A1, “Methods for monitoring severity of panic attacks and other rapidly evolving medical events in real time” (Alexza Molecular Delivery Corporation, priority 2003, published 2005)

Tested on: acute panic attacks in patients with panic disorder
Assay: Double-blind, randomized, placebo-controlled clinical trial of alprazolam delivered by inhalation; panic recorded with patient experience diary (PED)
Format: in vivo
Conditions: for mean peak panic severity / mean panic severity at 12 minutes: 11-point visual analogue scale; for mean panic severity at 12 minutes: 12 minutes following use of the inhaler
Method: To determine the efficacy of alprazolam delivered by inhalation in the treatment of acute panic attacks, a clinical trial is conducted. The objectives of the trial are to determine the effectiveness of alprazolam delivered by inhalation at the time of onset of panic symptoms in decreasing the duration and/or severity of acute panic attacks in patients with panic disorder. The duration and severity of acute panic symptoms are measured using a patient experience diary (PED) for the real time assessment of severity of panic attacks. Patients are recruited for the study by posting in various public locations and medical clinics advertisements seeking patients who experience 2 or more panic attacks per week for participation in the study. To enroll patients who have not previously been treated for panic, the advertisement may include a description of panic symptoms, so that patients who experience panic attacks without being aware that such attacks constitute a medical condition are encouraged to volunteer.
The overall study design is a double-blind, randomized, placebo-controlled clinical trial. Patients 18-65 years of age reporting at least 2 panic attacks per week, without history of psychotic disorders, substance abuse disorders, dementia, or severe or life-threatening medical disorders such as serious heart or lung disease, eligible for the study. Patients not currently on medication for panic disorder, as well as patients currently using a stable dose of selective serotonin reuptake inhibitor (SSRI) the treatment of panic disorder are eligible for the study, as are patients currently taking alprazolam or other benzodiazepines on a PRN basis, if the patients agree not to use such drugs during the study period. Patients using chronic benzodiazepines or other sedative hypnotics for the treatment of panic disorder are excluded from the study, as are patients using psychotropic medications other than SSRIs or unstable SSRI doses. Eligible patients are enrolled in the study after being explained the risks and benefits of the study and signing informed consent.
The patients are then trained in use of the PED described in Examples 1 and 2 above, set to an every 3 minute prompting interval. After being trained in use of the PED, the patients then take the PED home for 3 weeks of use. During these 3 weeks, patients must record at least one panic attack per week in the diary of duration greater than 12 minutes (time from initial diary entry until the patient answers “not at all” to the item regarding the severity of their panic symptoms right now) to proceed to the randomization point in the study. Patients recording less than one panic attack per week, only very brief (less than 12 minute duration panic attacks), or having difficulty using the diary are dropped from the study. At this point, continuing patients are randomized to receive placebo inhaler, inhaler dispensing alprazolam 0.25 mg as an aerosol having an approximately 2 μm mass median aerodynamic diameter (MMAD), or inhaler dispensing alprazolam 0.5 mg as an aerosol having an approximately 2 μm MMAD. Patients are given four identical inhalers each, and instructed to use the inhalers at the time of their next 4 panic attacks (only 1 inhaler per attack). In particular, the patients are instructed to start the PED at the initiation of panic symptoms before taking their medication, to take the medication when prompted by the PED, and then to record the course of the panic attack after taking the medication as prompted by the PED.
Data from the 4 panic attacks during which the inhaler is used as panic treatment are recorded in the PED and transmitted to a central data storage site. The data is analyzed after each patient records 4 panic attacks, or after 8 weeks passes from the time the patient received the inhalers. […]

## Cc1nnc2n1-c1ccc(Cl)cc1C(c1ccccc1)=NC2 [alprazolam, 8-chloro-1-methyl-6-phenyl-4H-[1,2,4]triazolo[4,3-α] [1,4]benzodiazepine]
Alprazolam 0.25 mg by inhaler
  mean peak panic severity: 6
  mean panic severity at 12 minutes: 3 out of 10
Alprazolam 0.5 mg by inhaler
  mean peak panic severity: 6
  mean panic severity at 12 minutes: 1.5 out of 10
Patients receiving alprazolam 0.25 mg by inhaler (aerosol, approx. 2 μm MMAD) at onset of panic attack
  mean duration of panic: 20 min
Patients receiving alprazolam 0.5 mg by inhaler (aerosol, approx. 2 μm MMAD) at onset of panic attack
  mean duration of panic: 10 min
